These results are taken from US6831199B1, “Pyrimidine compounds and derivatives thereof” (G. D. Searle & Co., priority 1995, dated 2004).

The subject of one test is platelet rich plasma. Put plainly: Human platelet rich plasma assay (ADP induced platelet aggregation). In kind it is cell-based. To be noted: read-out: Human PRP. The procedure, abridged: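 Citrated platelet-rich plasma from aspirin-free healthy human donors was stirred at 37 °C and preincubated with compound for 1 min. Aggregation was then triggered with ADP (added as a 200 uM solution) and recorded photometrically for 3 min. Dose–response curves were built from % inhibition of the maximal saline-control response.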

The target of test [1] is T1, Human vitronectin receptor (αvβ3) (Homo sapiens, UniProt P05106+P06756).
T1 construct: Human vitronectin receptor (αvβ3) was purified from human placenta; from tissue; host or cells: human placenta
Put plainly: Vitronectin adhesion assay (solid phase receptor assay, competition with biotinylated vitronectin). Format: binding. The procedure, abridged:
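Purified human αvβ3 coated overnight at 4 °C in TBS with 1.0 mM Ca++, Mg++, Mn++, pH 7.4; compounds (top final 1.0×10^−4 M) competed with 1 nM biotinylated vitronectin for 2 h at room temperature. Bound ligand detected by HRP anti-biotin/OPD at A450; values normalized to no-competitor controls, four-parameter curve fit.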

In test [2] the target is T2, Human fibrinogen receptor (αIIbβ3) (Homo sapiens, UniProt P05106+P08514).
T2 construct: Human fibrinogen receptor (αIIbβ3) was purified from outdated platelets; from tissue; host or cells: outdated human platelets
The experiment in a line: Purified IIb/IIIa receptor assay (solid phase receptor assay, competition with biotinylated vitronectin). Format: binding. The gist of the method: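 Competition format: 1 nM biotinylated vitronectin plus test compound (highest 1.0×10^−4 M), 2 h at room temperature on wells coated with platelet-derived αIIbβ3. Buffer was TBS containing 1.0 mM Ca, Mg, Mn, pH 7.4. HRP anti-biotin readout at 450 nm; normalized to maximum binding, four-parameter curve fit.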

For another test, the system named is M21 human melanoma cells. Put plainly: M21 melanoma cell adhesion assay (αvβ3-dependent adhesion to human fibrinogen-coated plates). In kind it is cell-based. On the procedure:
M21 MELANOMA CELL ADHESION ASSASY
This assay involves an αvβ3-dependent adhesion of M21 human melanoma cells to human fibrinogen-coated plastic tissue culture dishes.
Fibrinogen was purified from human plasma. Fibronectin and plasminogen were eliminated from the preparation by passing the sample over gelatin-sepharose 4B and lysine-sepharose 4B resins, respectively. The fibrinogen is diluted to 10 μg/mL in coating buffer ([…] Tris-HCl, 150 mM NaCl, pH 7.4). 100 μL of diluted fibrinogen is added to each well of a 96-well Immulon 2 microtiter plate (Dynatech; Chantilly, Va.) and allowed to coat overnight at 4° C. Plates are blocked with 1% BSA (Miles/Pentex; Kankakee, Ill.) in adhesion buffer (Hank's balanced salt solution without Ca^++ or Mg^++ [HBSS−−], 50 mM Hepes, 1 mg/mL BSA, pH 7.4) for 1 hour at 37° C.
M21 human melanoma cells were provided by Dr. J. Smith, La Jolla Cancer Research Institute. M21 cells are harvested from tissue culture flasks by washing with HBSS−− and adding cell dissociation solution (Sigma) and incubating for 5 minutes at 37° C. Harvested cells are washed 3 times with adhesion assay buffer containing 200 μM Mn^++. Cells are counted and suspended to a density of 2×10^6/mL in adhesion assay buffer containing 200 μM Mn^++. M21 cells are pre-incubated with antagonists of αvβ3 for 30 minutes at room temperature. Following the pre-incubation, the solutions containing a mixture of cells and antagonists are added to each well of the microtiter plate and allowed to bind for 30 minutes at 37° C.
Following adhesion, plates are gently washed 3 times with 200 μL of wash buffer (50 mM Tris-HCl, 150 mM NaCl, pH 7.4) using large bore pipet tips. Plates are briefly blotted dry and 100 μL of cell lysis buffer (50 mM sodium acetate, pH 5.0, 0.5% Triton X-100, 0.3 mg/mL p-nitrophenyl phosphate [Sigma] is added to each well. Plates are incubated for 60 minutes at 37° C. and 50 μL of 1N NaOH is added to stop the reaction. The absorbance of the wells at […] is read using an automatic plate reader.

The mark [3] stands for this setting: Homo sapiens, M21, read-out: M21 Melanoma Cells IC50.
[4] abbreviates: Homo sapiens, M21; read-out: M21 Melanoma Cells IC50.
The mark [5] stands for this setting: trifluoroacetate salt; read-out: M21 Melanoma Cells IC50.
The mark [6] stands for this setting: ADP induced platelet aggregation in human platelet rich plasma.
Where [7] appears, read: Homo sapiens, Platelet, ADP induced platelet aggregation in human platelet rich plasma.

Structures can show the parent of a compound that is named as a salt. Where two headings read alike, the source gives them in different places.

With `N=C(N)Nc1cccc(C(=O)NCC(=O)NC(CC(=O)O)c2cccnc2)c1` (racemic) [Example 2, (±)β-[[2-[[[3-[(aminoiminomethyl)amino]phenyl]carbonyl]amino]acetyl]amino]pyridine-3-propanoic acid, bis(trifluoroacetate)salt], the IC50 was 200000 nM in the test with platelet rich plasma (Homo sapiens, Platelet); 0.54 nM in test [1] (read-out: AvB3 IC50); 51.2 nM in test [2] (read-out: IIb/IIIa IC50); 0.25 nM in the test on M21 human melanoma cells (setting [3]).
With `CCOC(=O)CC(NC(=O)CNC(=O)c1cccc(NC(=N)N)c1)c1ccccc1` (racemic) [Example 3, (±)ethyl β-[[2-[[[3-[(aminoiminomethyl)amino]phenyl]carbonyl]amino]acetyl]amino]benzenepropanoate, trifluoroacetate salt], the IC50 is 498 nM in test [1] (read-out: AvB3 IC50), 72900 nM in test [2] (read-out: IIb/IIIa IC50) and 3050 nM with M21 human melanoma cells (setting [4]).
As to `O=C(O)CC(NC(=O)CNC(=O)c1cccc(NC(=O)NCc2ccccc2)c1)c1cccnc1` (racemic) [Example 106, (±)β-[[2-[[[3-[[[(phenylmethyl)amino]carbonyl]aminophenyl]carbonyl]amino]acetyl]-amino]pyridine-3-propanoic acid], the results for the IC50 (in test [1] (read-out: AvB3 IC50); in test [2] (read-out: IIb/IIIa IC50); in the test with M21 human melanoma cells (read-out: M21 Melanoma Cells IC50)) were 0.79 nM, 3140 nM and 0.81 nM, respectively.
Turning to `C#C[C@H](CC(=O)O)NC(=O)CNC(=O)c1cccc(NC(=N)N)c1` [Example 69, 3S-[[2-[[[3-[(aminoiminomethyl)amino]phenyl]carbonyl]amino]acetyl]amino]-4-pentynoic acid, trifluoroacetate salt], the IC50 is over 200000 nM in the test on platelet rich plasma (ADP induced platelet aggregation in human platelet rich plasma, trifluoroacetate salt); 0.92 nM in test [1] (read-out: AvB3 IC50); 33.6 nM in test [2] (read-out: IIb/IIIa IC50); 0.95 nM in the test on M21 human melanoma cells (setting [5]).
As to `C#C[C@@H](CC(=O)O)NC(=O)CNC(=O)c1cccc(NC(=N)N)c1` [Example 70, 3R-[[2-[[[3-[(aminoiminomethyl)amino]phenyl]carbonyl]amino]acetyl]amino]-4-pentynoic acid, trifluoroacetate salt], the IC50 in the test with platelet rich plasma (setting [6]) was over 200000 nM; in test [1] (read-out: AvB3 IC50), 63 nM; in test [2] (read-out: IIb/IIIa IC50), 3240 nM; in the test on M21 human melanoma cells (setting [5]), 924 nM.
Turning to `N=C(N)Nc1cccc(C(=O)NCC(=O)N[C@H](COC(=O)c2ccccc2N)CC(=O)O)c1` [Example 94, 2S-[[2-[[[3-[[aminoiminomethyl]amino]phenyl]carbonyl]amino]acetyl]amino]-3-carboxypropyl 2-aminobenzoate, bis(trifluoroacetate)salt, monohydrate], the IC50 was over 200000 nM in the test on platelet rich plasma (Homo sapiens, Platelet); 1.16 nM in test [1] (AvB3 IC50); 101 nM in test [2] (IIb/IIIa IC50); 1 nM in the test with M21 human melanoma cells (setting [3]).
In the case of `N=C(N)Nc1cccc(C(=O)NCC(=O)NCCC(=O)O)c1` [Example 97, N-[2-[[[3-[(aminoiminomethyl)amino]phenyl]carbonyl]amino]acetyl]-β-alanine], the IC50 in test [1] (read-out: AvB3 IC50) was 26.9 nM; in test [2] (read-out: IIb/IIIa IC50), 1170 nM; with M21 human melanoma cells (setting [4]) it was 163 nM.
Take `NC(=O)Nc1cccc(C(=O)NCC(=O)NC(CC(=O)O)c2cccnc2)c1` (stereo not drawn) [Example 110, β-[[2-[[[3-(aminocarbonylamino)phenyl]carbonyl]amino]acetyl]amino]pyridine-3-propanoic acid, trifluoroacetate salt]: the IC50 in the test with platelet rich plasma (setting [6]) was over 200000 nM; in test [1] (read-out: AvB3 IC50) it was 4.5 nM; in test [2] (read-out: IIb/IIIa IC50) it was 1860 nM; with M21 human melanoma cells (setting [5]), 177 nM.
For the molecule `O=C(O)CC(NC(=O)CNC(=O)c1cccc(NC(=O)NCc2ccccc2)c1)c1ccccc1` (stereo not drawn) [Example 119, β-[[2-[[[3-[[[(phenylmethyl)amino]carbonyl]amino]phenyl]carbonyl]amino]acetyl]amino]benzenepropanoic acid], the IC50 in the test with platelet rich plasma (Homo sapiens, Platelet) was over 20000 nM; in test [1] (read-out: AvB3 IC50), 3.61 nM; in test [2] (read-out: IIb/IIIa IC50), 11100 nM; with M21 human melanoma cells (setting [3]) it was 90.4 nM.
With `C#C[C@H](CC(=O)O)NC(=O)CNC(=O)c1cccc(N/C(=N/C#N)NC)c1` [Example 141, 3S-[[2-[[[3-[[(cyanoimino)(methylamino)methyl]amino]phenyl]carbonyl]amino]acetyl]amino]-4-pentynoic acid], the IC50 with platelet rich plasma (setting [7]) is over 200000 nM; in test [1] (read-out: AvB3 IC50) it was 3.09 nM; in test [2] (read-out: IIb/IIIa IC50), 125 nM.
As to `N#C/N=C(/NCc1ccccn1)Nc1cccc(C(=O)NCC(=O)NC(CC(=O)O)c2ccccc2)c1` (stereo not drawn) [Example 144, β-[[2-[[[3-[[(cyanoimino)[2-pyridinylmethyl)amino]methyl]amino]phenyl]carbonyl]amino]acetyl]amino]benzenepropanoic acid, bis(trifluoroacetate)salt], the values for the IC50 (in the test with platelet rich plasma (setting [7]); in test [1] (read-out: AvB3 IC50); in test [2] (read-out: IIb/IIIa IC50)) were over 200000 nM, 55.3 nM and 5830 nM, respectively.
For the molecule `N#C/N=C(/NCc1cccnc1)Nc1cccc(C(=O)NCC(=O)NC(CC(=O)O)c2ccccc2)c1` (stereo not drawn) [Example 146, β-[[2-[[[3-[[(cyanoimino)[3-pyridinylmethyl)amino]methyl]amino]phenyl]carbonyl]amino]acetyl]amino]benzenepropanoic acid, bis(trifluoroacetate)salt], the IC50 in the test on platelet rich plasma (setting [7]) is over 200000 nM; in test [1] (read-out: AvB3 IC50), 14.3 nM; in test [2] (read-out: IIb/IIIa IC50) it was 879 nM.
Consider `N=C(N)Nc1cc(C(=O)NCC(=O)NC(CC(=O)O)c2ccccc2)ccc1Cl` (stereo not drawn) [Example 150, β-[[2-[[[3-[(aminoiminomethyl)amino]-4-chlorophenyl)carbonyl]amino]acetyl]amino]benzenepropanoic acid], for which the IC50 in the test on platelet rich plasma (setting [7]) is over 200000 nM; in test [1] (read-out: AvB3 IC50), 5.74 nM; in test [2] (read-out: IIb/IIIa IC50), 631 nM.
For `N=C(N)Nc1ccc(Cl)c(C(=O)NCC(=O)NC(CC(=O)O)c2ccccc2)c1` (stereo not drawn) [Example 155, β-[[2-[[[5-[(aminoiminomethyl)amino]-2-chlorophenyl]carbonyl]amino]acetyl]amino]benzenepropanoic acid, trifluoroacete salt], in that order: over 200000 nM, 5.05 nM and 81.1 nM.
As for `NC(=O)/N=C(/N)Nc1cccc(C(=O)NCC(=O)NC(CC(=O)O)c2cc(Cl)cc(Cl)c2)c1` (stereo not drawn) [Example 162, β-[[(2-[[[3-[[amino(aminocarbonyl)imino]methyl]amino]phenyl]carbonyl]amino]acetyl]amino]-3,5-dichlorobenzenepropanoic acid, trifluoroacetate salt], the IC50 was over 200000 nM with platelet rich plasma (setting [7]), 4.62 nM in test [1] (read-out: AvB3 IC50) and 1340 nM in test [2] (read-out: IIb/IIIa IC50).
